Measured values from patent publication US7811352B2, “Fertilizer compositions and methods of using” (priority 2005, dated 2010).

Key:
[1] = test system: total soil bacteria and fungi; experiment: Soil microbial population (plate count) after fertilizer application to Kentucky bluegrass turf (Example 8); details: 1.0 lb N/1000 ft^2; 24, 48 and 72 hours after application
Procedure: In this Example, the effect on various embodiments of the fertilizer composition on soil microbial population (bacterial and fungal) was examined. The Example compared the effect on total microbial populations 24, 48 and 72 hours after application of the fertilizer to a Kentucky bluegrass turf.
The following fertilizer compositions were used: urea, dry lysine (lysine (HCl), LIQUID LYSINE brand aqueous lysine solution (available from Archer-Daniels-Midland Company, Decatur, Ill.), a threonine cell mass, a lysine cell mass, and soy/lysine combination (a granular mixture of dry lysine and soy flour, soy flakes and soybean oil. Analysis of the threonine cell mass is presented in Table 5. The effect of the fertilizer compositions on microbial population were compared with a control plot to which no fertilizer composition was applied. The dry lysine was dissolved in water and applied by spraying on the turf plot. The fertilizer compositions were applied at a rate of 1.0 lb N/1000 ft^2 of Kentucky bluegrass turf Soil samples from the turf were analyzed for total soil bacteria and fungi by standard plate count and dilution series.

[2] = test system: ultra-dwarf Bermuda grass; experiment: Phytotoxicity rating, ultra-dwarf Bermuda grass greens (Example 11); format: in vivo; details: scale 0-5, 5=worst
Source text: In this Example, the effect of a fertilizer comprising lysine on warm season turfgrass growth was examined. The effects of lysine (HCl) and LIQUID LYSINE on a common type of golf course greens quality turfgrass (ultra-dwarf Bermuda grass) were compared with those of urea and Milorganite.
Twelve fertilizer treatments comprising three concentrations of each fertilizer composition (Milorganite (N—P—K, 6-2-0), urea (N—P—K, 46-0-0), LIQUID LYSINE (N—P—K, 10-2-1), and lysine (HCl) (N—P—K, 15-2-1)) were prepared and applied to 3 replications of ultra-dwarf Bermuda grass. The lysine (HCl) was dissolved in water prior to application. Each fertilizer treatment was applied in concentrations of 0.125 lb N/1000 ft^2/week, 0.25 lb N/1000 ft^2/week and 0.75 lb N/1000 ft^2/week. The urea, LIQUID LYSINE and lysine (HCl) were applied as foliar liquids, while Milorganite was applied as a granular fertilizer. Plot size was 1 m×1 m set up as a randomized complete block. Plots were mowed at 0.125 inches before fertilizer application. Irrigation (0.15 inch) was applied following application. Plots were rated for turfgrass quality and color (scale of 1-10 where 10=dark green turf, 1=dead/brown turf, and 6=initially acceptable turf) and phytotoxicity (scale of 0-5, where 5=worst, and 2=minimally objectionable) throughout the study period. Quality, color, and phytotoxicity were measured on 2 days before application (day −2) and day 2, day 5, day 15 and day 21 after application. All data was subject to statistical analysis and significant means were determined. Average turfgrass quality ratings for the treatments are presented in Table 12 and the quality results for application rates of 0.25 lb N/1000 ft^2/week are graphically presented in FIG. 6.

[3] = test system: Moonlight Kentucky bluegrass; experiment: Turfgrass quality rating, Kentucky bluegrass lawn (Example 17); format: in vivo
Source text: In this Example, the effect of a fertilizer comprising lysine on cool season lawn variety turfgrass growth was examined. The effects of lysine (HCl) and LIQUID LYSINE on a common variety of law turfgrass (Moonlight Kentucky bluegrass) were compared with those of urea, Milorganite and a blended fertilizer (a blend of methylene urea and urea in an approximately 1:1 ratio).
Fifteen fertilizer treatments comprising three concentrations of each fertilizer composition (Milorganite N—P—K, 6-2-0), urea (N—P—K, 46-0-0), a blended fertilizer, LIQUID LYSINE (N—P—K, 10-2-1), and lysine (HCl) (N—P—K, 15-2-1)) were prepared and applied to 3 replications of newly established “Moonlight” variety Kentucky bluegrass lawn turfgrass. The urea, lysine (HCl), and LIQUID LYSINE were dissolved/suspended in 1.5 gal water prior to application. […], […], The urea, LIQUID LYSINE and lysine (HCl) were applied as foliar liquids, while Milorganite and the blended fertilizer were applied as granular fertilizers. Plot size was 4 ft×8 ft laid out in a replicated complete block design. Plots were mowed at 2.0 inches before fertilizer application and mowed two times per week to 2.0 inch height. Grass clippings were not removed from the plots and no supplemental cultural maintenance or pest management was applied. Irrigation (0.15 inch) was applied following application and thereafter only when necessary to insure survival of the turf. Plots were rated for turfgrass quality (scale of 1-9 where 9=dark green turf, 1=dead/brown turf, and 6=minimally acceptable turf) and phytotoxic injury (scale of 0-9 where 9=significant foliar injury and 2=minimally objectionable foliar injury) throughout the study period. Quality was measured prior to application (day 0) and day 37, day 70 and day 95 after application. Injury was measured on day 37 and day 70 after application. In addition, blade density of the grass was measured on day 70 after application (scale of 1-9, where 9=very dense turf, 1=low density turf). All data was subject to statistical analysis and significant means were determined.

[4] = Weekly Rate 0.125 lbs N/1000 ft^2, Day 2
[5] = Weekly Rate 0.125 lbs N/1000 ft^2, Day 5
[6] = Weekly Rate 0.125 lbs N/1000 ft^2, Day 15
[7] = Weekly Rate 0.125 lbs N/1000 ft^2, Day 21
[8] = Weekly Rate 0.125 lbs N/1000 ft^2, Day −2 (before application)
[9] = Weekly Rate 0.25 lbs N/1000 ft^2, Day 2
[10] = Weekly Rate 0.25 lbs N/1000 ft^2, Day 5
[11] = Weekly Rate 0.25 lbs N/1000 ft^2, Day 15
[12] = Weekly Rate 0.25 lbs N/1000 ft^2, Day 21
[13] = Weekly Rate 0.25 lbs N/1000 ft^2, Day −2 (before application)
[14] = Weekly Rate 0.75 lbs N/1000 ft^2, Day 2
[15] = Weekly Rate 0.75 lbs N/1000 ft^2, Day 5
[16] = Weekly Rate 0.75 lbs N/1000 ft^2, Day 15
[17] = Weekly Rate 0.75 lbs N/1000 ft^2, Day 21
[18] = Weekly Rate 0.75 lbs N/1000 ft^2, Day −2 (before application)
[19] = Weekly Rate 0.5 lbs N/1000 ft^2, Day 0
[20] = Weekly Rate 0.5 lbs N/1000 ft^2, Day 37
[21] = Weekly Rate 0.5 lbs N/1000 ft^2, Day 70
[22] = Weekly Rate 0.5 lbs N/1000 ft^2, Day 95
[23] = Weekly Rate 1.0 lbs N/1000 ft^2, Day 0
[24] = Weekly Rate 1.0 lbs N/1000 ft^2, Day 37
[25] = Weekly Rate 1.0 lbs N/1000 ft^2, Day 70
[26] = Weekly Rate 1.0 lbs N/1000 ft^2, Day 95
[27] = Weekly Rate 3.0 lbs N/1000 ft^2, Day 0
[28] = Weekly Rate 3.0 lbs N/1000 ft^2, Day 37
[29] = Weekly Rate 3.0 lbs N/1000 ft^2, Day 70
[30] = Weekly Rate 3.0 lbs N/1000 ft^2, Day 95

Compound	soil microbial populations compared with controls [1]	Phytotoxicity - Dwarf Bermuda Grass [2, 4]	Phytotoxicity - Dwarf Bermuda Grass [2, 5]	Phytotoxicity - Dwarf Bermuda Grass [2, 6]	Phytotoxicity - Dwarf Bermuda Grass [2, 7]	Phytotoxicity - Dwarf Bermuda Grass [2, 8]	Phytotoxicity - Dwarf Bermuda Grass [2, 9]	Phytotoxicity - Dwarf Bermuda Grass [2, 10]	Phytotoxicity - Dwarf Bermuda Grass [2, 11]	Phytotoxicity - Dwarf Bermuda Grass [2, 12]	Phytotoxicity - Dwarf Bermuda Grass [2, 13]	Phytotoxicity - Dwarf Bermuda Grass [2, 14]	Phytotoxicity - Dwarf Bermuda Grass [2, 15]	Phytotoxicity - Dwarf Bermuda Grass [2, 16]	Phytotoxicity - Dwarf Bermuda Grass [2, 17]	Phytotoxicity - Dwarf Bermuda Grass [2, 18]	Quality Rating - Kentucky Bluegrass [3, 19]	Quality Rating - Kentucky Bluegrass [3, 20] [b]	Quality Rating - Kentucky Bluegrass [3, 21] [cd]	Quality Rating - Kentucky Bluegrass [3, 22] [ab]	other results
NC(N)=O [Urea, urea, reference compound]	did not significantly differ	0	0	0	0	0	0	0	0	0	0	0	0	0	0	0	4.7de	6.0	4.3	4.3	Quality Rating - Kentucky Bluegrass [3, 23]: 5.0cde; Quality Rating - Kentucky Bluegrass [3, 24]: 7.7a; Quality Rating - Kentucky Bluegrass [3, 25]: 5.3bc; Quality Rating - Kentucky Bluegrass [3, 26]: 6.3a; Quality Rating - Kentucky Bluegrass [3, 27]: 6.3ab; Quality Rating - Kentucky Bluegrass [3, 28]: 8.0a; Quality Rating - Kentucky Bluegrass [3, 29]: 6.7a; Quality Rating - Kentucky Bluegrass [3, 30]: 4.3ab
Cl.NCCCC[C@H](N)C(=O)O [Lys (HCl) 15% N, L-lysine monohydrochloride]	did not significantly differ	0	0	0	0	0	0	0	0	0	0	0	0	0	0	0	5.0cde	5.3	4.3	5.7	Quality Rating - Kentucky Bluegrass [3, 23]: 5.3bcd; Quality Rating - Kentucky Bluegrass [3, 24]: 7.3a; Quality Rating - Kentucky Bluegrass [3, 25]: 6.0ab; Quality Rating - Kentucky Bluegrass [3, 26]: 6.0a; Quality Rating - Kentucky Bluegrass [3, 27]: 6.3ab; Quality Rating - Kentucky Bluegrass [3, 28]: 8.0a; Quality Rating - Kentucky Bluegrass [3, 29]: 6.7a; Quality Rating - Kentucky Bluegrass [3, 30]: 5.7ab
